Test results as given in ChEMBL document CHEMBL5715954, “Silencing c-Myc translation as a therapeutic strategy through targeting PI3Kδ and CK1ε in hematological malignancies” (Blood, 2017).

Assays:
Parameters in all cases: scale not given: the % may be the effect or the level left
[1] = target: T1, Interleukin-1 receptor-associated kinase 4 (Homo sapiens) (UniProt Q9NWZ3); assay: Inhibition of human IRAK4 assessed as enzyme activity at 1 uM using myelin basic protein as substrate preincubated for 20 mins followed by [gamma-33P]-ATP addition and measured after 120 mins by radiometric Hot-SpotSM Kinase assay relative to control
T1 sequence (whole entry): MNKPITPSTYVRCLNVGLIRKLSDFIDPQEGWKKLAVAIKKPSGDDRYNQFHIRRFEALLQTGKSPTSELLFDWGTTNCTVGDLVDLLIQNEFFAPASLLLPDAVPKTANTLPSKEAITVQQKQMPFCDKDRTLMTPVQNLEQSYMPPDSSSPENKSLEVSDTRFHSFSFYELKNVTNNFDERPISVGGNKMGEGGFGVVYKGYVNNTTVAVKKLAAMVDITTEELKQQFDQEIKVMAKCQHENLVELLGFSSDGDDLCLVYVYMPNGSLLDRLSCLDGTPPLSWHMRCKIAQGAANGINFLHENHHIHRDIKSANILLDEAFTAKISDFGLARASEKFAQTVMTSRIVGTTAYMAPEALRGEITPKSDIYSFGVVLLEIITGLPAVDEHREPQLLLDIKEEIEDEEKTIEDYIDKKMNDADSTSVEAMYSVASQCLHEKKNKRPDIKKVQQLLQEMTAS

[2] = target: Homeodomain-interacting protein kinase 3 (Homo sapiens) (UniProt Q9H422); assay: Inhibition of human HIPK3 assessed as enzyme activity at 1 uM using myelin basic protein as substrate preincubated for 20 mins followed by [gamma-33P]-ATP addition and measured after 120 mins by radiometric Hot-SpotSM Kinase assay relative to control
Chain of Homeodomain-interacting protein kinase 3 (Homo sapiens) (Q9H422 whole entry, looked up): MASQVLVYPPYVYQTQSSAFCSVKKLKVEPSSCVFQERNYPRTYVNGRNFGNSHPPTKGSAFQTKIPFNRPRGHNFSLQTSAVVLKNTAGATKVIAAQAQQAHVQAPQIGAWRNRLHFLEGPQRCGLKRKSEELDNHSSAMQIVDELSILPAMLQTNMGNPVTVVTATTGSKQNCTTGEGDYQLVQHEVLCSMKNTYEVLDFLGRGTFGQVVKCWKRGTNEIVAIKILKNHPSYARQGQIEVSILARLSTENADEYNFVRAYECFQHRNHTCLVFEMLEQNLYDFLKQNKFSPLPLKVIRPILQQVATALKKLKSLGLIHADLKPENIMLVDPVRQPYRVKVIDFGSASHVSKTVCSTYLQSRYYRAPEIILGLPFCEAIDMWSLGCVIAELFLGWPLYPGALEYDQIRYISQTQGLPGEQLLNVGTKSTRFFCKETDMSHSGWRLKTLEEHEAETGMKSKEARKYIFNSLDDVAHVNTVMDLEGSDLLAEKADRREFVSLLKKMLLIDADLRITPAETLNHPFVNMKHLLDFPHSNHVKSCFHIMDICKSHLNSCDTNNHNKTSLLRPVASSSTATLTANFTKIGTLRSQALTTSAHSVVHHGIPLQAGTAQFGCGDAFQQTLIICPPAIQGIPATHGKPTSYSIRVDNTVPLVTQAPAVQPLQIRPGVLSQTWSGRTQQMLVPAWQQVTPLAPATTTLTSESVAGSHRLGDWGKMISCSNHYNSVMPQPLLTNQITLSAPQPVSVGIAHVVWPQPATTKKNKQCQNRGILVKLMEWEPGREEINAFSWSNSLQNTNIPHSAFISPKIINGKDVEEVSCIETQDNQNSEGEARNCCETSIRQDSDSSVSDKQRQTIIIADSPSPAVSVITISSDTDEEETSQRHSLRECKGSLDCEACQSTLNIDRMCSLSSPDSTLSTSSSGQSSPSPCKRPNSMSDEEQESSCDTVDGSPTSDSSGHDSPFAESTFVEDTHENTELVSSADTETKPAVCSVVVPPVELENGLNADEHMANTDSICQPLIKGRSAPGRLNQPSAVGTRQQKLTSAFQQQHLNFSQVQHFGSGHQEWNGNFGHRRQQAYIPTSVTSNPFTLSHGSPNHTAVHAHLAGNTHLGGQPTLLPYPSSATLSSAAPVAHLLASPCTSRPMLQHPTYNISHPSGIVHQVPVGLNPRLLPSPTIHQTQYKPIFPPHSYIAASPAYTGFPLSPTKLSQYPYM

[3] = target: Serine/threonine-protein kinase Nek4 (Homo sapiens) (UniProt P51957); assay: Inhibition of human NEK4 assessed as enzyme activity at 1 uM using myelin basic protein as substrate preincubated for 20 mins followed by [gamma-33P]-ATP addition and measured after 120 mins by radiometric Hot-SpotSM Kinase assay relative to control
Chain of Serine/threonine-protein kinase Nek4 (Homo sapiens) (P51957 whole entry, looked up): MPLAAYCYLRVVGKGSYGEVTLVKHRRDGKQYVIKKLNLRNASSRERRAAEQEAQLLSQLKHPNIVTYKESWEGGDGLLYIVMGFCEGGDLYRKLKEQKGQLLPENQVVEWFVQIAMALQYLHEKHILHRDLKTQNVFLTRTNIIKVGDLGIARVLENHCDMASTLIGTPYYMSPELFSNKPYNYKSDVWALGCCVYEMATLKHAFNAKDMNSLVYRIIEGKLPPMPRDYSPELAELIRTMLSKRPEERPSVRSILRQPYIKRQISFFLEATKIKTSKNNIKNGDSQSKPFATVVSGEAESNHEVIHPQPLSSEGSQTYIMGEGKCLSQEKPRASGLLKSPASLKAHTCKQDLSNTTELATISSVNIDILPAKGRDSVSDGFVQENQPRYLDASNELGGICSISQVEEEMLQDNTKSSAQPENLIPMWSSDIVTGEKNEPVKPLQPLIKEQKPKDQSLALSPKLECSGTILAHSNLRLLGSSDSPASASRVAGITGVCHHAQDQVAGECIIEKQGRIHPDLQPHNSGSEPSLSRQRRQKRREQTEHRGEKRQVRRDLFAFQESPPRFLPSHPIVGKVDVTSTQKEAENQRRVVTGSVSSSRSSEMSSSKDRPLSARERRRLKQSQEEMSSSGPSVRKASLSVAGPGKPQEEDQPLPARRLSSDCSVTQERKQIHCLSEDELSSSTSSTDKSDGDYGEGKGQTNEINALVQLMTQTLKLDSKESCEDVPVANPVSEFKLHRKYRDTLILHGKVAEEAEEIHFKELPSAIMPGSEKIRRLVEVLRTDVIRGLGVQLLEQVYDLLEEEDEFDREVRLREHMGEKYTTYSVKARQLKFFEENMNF

[4] = target: Serine/threonine-protein kinase MARK1 (Homo sapiens) (UniProt Q9P0L2); assay: Inhibition of human MARK1 assessed as enzyme activity at 1 uM using KKKVSRSGLYRSPSMPENLNRPR as substrate preincubated for 20 mins followed by [gamma-33P]-ATP addition and measured after 120 mins by radiometric Hot-SpotSM Kinase assay relative to control
Chain of Serine/threonine-protein kinase MARK1 (Homo sapiens) (Q9P0L2 whole entry, looked up): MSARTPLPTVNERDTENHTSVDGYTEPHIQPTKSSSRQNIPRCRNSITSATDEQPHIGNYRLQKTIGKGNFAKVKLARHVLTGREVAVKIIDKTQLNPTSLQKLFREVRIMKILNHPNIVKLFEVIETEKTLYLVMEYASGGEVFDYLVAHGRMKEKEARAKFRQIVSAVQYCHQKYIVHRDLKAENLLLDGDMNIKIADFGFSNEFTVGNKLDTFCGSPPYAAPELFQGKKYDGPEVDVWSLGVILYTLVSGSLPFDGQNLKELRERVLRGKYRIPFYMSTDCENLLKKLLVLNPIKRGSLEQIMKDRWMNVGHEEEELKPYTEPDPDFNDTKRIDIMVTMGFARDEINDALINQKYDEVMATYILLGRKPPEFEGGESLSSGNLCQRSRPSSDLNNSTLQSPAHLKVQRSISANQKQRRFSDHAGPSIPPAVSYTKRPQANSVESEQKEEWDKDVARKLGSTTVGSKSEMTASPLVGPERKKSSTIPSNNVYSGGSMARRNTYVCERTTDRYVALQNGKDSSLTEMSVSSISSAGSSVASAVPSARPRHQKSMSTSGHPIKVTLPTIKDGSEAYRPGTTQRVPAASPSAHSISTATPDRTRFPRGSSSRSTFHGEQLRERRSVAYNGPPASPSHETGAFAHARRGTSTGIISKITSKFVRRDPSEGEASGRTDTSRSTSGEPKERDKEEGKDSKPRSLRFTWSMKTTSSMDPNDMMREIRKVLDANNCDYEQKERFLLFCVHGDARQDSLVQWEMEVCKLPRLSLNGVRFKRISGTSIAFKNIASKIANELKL

[5] = target: T2, Serine/threonine-protein kinase Nek8 (Homo sapiens) (UniProt Q86SG6); assay: Inhibition of human NEK8 assessed as enzyme activity at 1 uM using myelin basic protein as substrate preincubated for 20 mins followed by [gamma-33P]-ATP addition and measured after 120 mins by radiometric Hot-SpotSM Kinase assay relative to control
T2 sequence (whole entry): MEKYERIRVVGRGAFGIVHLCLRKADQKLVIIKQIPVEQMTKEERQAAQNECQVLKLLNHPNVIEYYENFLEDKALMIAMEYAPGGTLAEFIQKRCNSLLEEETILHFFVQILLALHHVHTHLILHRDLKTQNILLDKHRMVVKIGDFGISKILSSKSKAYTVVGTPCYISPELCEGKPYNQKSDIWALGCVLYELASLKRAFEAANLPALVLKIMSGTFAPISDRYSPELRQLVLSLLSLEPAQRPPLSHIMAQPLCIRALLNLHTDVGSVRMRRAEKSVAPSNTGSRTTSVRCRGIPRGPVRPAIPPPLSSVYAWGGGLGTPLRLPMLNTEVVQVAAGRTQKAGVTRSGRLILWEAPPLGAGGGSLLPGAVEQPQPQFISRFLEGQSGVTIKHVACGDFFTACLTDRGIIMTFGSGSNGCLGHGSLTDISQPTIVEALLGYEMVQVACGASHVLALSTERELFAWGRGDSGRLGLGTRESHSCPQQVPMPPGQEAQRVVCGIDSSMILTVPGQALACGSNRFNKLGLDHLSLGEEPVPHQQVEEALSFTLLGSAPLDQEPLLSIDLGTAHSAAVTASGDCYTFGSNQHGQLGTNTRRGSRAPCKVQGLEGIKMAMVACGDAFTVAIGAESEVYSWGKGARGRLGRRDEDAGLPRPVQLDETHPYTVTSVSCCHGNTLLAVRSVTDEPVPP

[6] = target: Dual specificity tyrosine-phosphorylation-regulated kinase 1A (Homo sapiens) (UniProt Q13627); assay: Inhibition of human DYRK1/DYRK1A assessed as enzyme activity at 1 uM using RRRFRPASPLRGPPK as substrate preincubated for 20 mins followed by [gamma-33P]-ATP addition and measured after 120 mins by radiometric Hot-SpotSM Kinase assay relative to control
[7] = target: Glycogen synthase kinase-3 beta (Homo sapiens) (UniProt P49841); assay: Inhibition of human GSK3b assessed as enzyme activity at 1 uM using YRRAAVPPSPSLSRHSSPHQ(pS)EDEEE as substrate preincubated for 20 mins followed by [gamma-33P]-ATP addition and measured after 120 mins by radiometric Hot-SpotSM Kinase assay relative to control
Chain of Glycogen synthase kinase-3 beta (Homo sapiens) (P49841 whole entry, looked up): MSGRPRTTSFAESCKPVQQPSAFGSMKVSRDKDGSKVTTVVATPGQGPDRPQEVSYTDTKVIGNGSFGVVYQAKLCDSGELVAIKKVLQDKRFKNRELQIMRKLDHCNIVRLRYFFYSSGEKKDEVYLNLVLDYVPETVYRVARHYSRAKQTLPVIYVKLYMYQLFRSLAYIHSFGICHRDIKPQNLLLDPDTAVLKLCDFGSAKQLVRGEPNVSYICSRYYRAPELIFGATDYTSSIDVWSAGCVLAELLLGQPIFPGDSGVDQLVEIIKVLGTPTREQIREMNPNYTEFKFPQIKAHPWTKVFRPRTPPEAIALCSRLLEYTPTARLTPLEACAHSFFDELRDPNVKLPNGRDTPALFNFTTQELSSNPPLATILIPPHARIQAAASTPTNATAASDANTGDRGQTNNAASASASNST

| SMILES | Activity [1] | Activity [2] | Activity [3] | Activity [4] | Activity [5] | Activity [6] | Activity [7] |
| --- | --- | --- | --- | --- | --- | --- | --- |
| CC[C@H](Nc1ncnc2[nH]cnc12)c1nc2cccc(F)c2c(=O)n1-c1ccccc1 | 96.3% | 108% | 95.5% | 99.9% | 94.3% | 87.8% | 114% |
| C[C@H](Nc1ncnc2nc[nH]c12)c1cc2cccc(Cl)c2c(=O)n1-c1ccccc1 | 91% | 105% | 92.2% | 93.3% | 95% | 89% | 113% |
| CC(C)Oc1ccc(-c2nn([C@@H](C)c3oc4ccc(F)cc4c(=O)c3-c3cccc(F)c3)c3ncnc(N)c23)cc1F [UMBRALISIB] | 101% | 103% | 87.8% | 96.2% | 91% | 87% | 111% |
